In US20260125346A1, “Isoquinolinone Derivatives and 4H-Quinolizinone Derivatives and Pharmaceutical Compositions Thereof for the Treatment of Disease” (BeOne Medicines I GmbH, priority 2023, published 2026):

Legend:
[1] = molecular target: PI3Kα (p110[H1047R]/p85) kinase (Homo sapiens, UniProt P42336, H1047R); test: PI3Kα (p110[H1047R]/p85) kinase ADP-Glo Assay; assay type: biochemical; conditions: 25 uM ATP; for selectivity: WT/H1047R: ADP-Glo Assay IC50 ratio
Procedure, shortened: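 PI3Kα H1047R/p85 pre-incubated 30 min at room temperature with PI(4,5)P2:PS substrate ([…]) and compound ([…]) in HEPES pH 7.5 buffer with MgCl2; ATP ([…]) then added for 120 min. ADP quantified by ADP-Glo luminescence; IC50 from four-parameter logistic fit.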

[2] = tested on: PI3Kα H1047R mutated cell line T-47D cells; test: Cell Proliferation Assay (CellTiter-Glo), T-47D; assay type: cell-based; conditions: for IC50: Homo sapiens, T47D, 72 h, T-47D, 3 days treatment; for Selectivity: SK-BR-3/T-47D (cell proliferation): cell proliferation IC50 ratio
Procedure, shortened: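 T-47D cells seeded overnight at 3×10^3/well, then exposed 3 days to 9-point 1:3 dilutions, final […] to 1 nM in 0.1% DMSO. CellTiter-Glo luminescence; relative IC50 from percent inhibition versus medium-only and 0.1% DMSO controls, 4-parameter logistic fit.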

[3] = tested on: PI3Kα H1047R mutated cell line T-47D; test: Phospho-AKT (Ser473) Inhibition Assay (HTRF), T-47D; assay type: cell-based; conditions: for IC50: Homo sapiens, T47D, T-47D, 1 hour treatment, read-out: p-AKT Inhibition assay (S473) IC50 T-47D; for Selectivity: SK-BR-3/T-47D (p-AKT): p-AKT (S473) IC50 ratio
Procedure, shortened: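 Cells seeded overnight in insulin-supplemented MEM, then treated 1 h with 11-point 1:3 compound dilutions (10 μM to 0.1 nM final, 0.1% DMSO). Lysates assayed for phospho-AKT Ser473 by HTRF; IC50 from 4-parameter logistic fit, normalised to DMSO (max) and 10 μM GDC0077 (min).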

Chain of PI3Kα (p110[H1047R]/p85) kinase (P42336 whole entry H1047R): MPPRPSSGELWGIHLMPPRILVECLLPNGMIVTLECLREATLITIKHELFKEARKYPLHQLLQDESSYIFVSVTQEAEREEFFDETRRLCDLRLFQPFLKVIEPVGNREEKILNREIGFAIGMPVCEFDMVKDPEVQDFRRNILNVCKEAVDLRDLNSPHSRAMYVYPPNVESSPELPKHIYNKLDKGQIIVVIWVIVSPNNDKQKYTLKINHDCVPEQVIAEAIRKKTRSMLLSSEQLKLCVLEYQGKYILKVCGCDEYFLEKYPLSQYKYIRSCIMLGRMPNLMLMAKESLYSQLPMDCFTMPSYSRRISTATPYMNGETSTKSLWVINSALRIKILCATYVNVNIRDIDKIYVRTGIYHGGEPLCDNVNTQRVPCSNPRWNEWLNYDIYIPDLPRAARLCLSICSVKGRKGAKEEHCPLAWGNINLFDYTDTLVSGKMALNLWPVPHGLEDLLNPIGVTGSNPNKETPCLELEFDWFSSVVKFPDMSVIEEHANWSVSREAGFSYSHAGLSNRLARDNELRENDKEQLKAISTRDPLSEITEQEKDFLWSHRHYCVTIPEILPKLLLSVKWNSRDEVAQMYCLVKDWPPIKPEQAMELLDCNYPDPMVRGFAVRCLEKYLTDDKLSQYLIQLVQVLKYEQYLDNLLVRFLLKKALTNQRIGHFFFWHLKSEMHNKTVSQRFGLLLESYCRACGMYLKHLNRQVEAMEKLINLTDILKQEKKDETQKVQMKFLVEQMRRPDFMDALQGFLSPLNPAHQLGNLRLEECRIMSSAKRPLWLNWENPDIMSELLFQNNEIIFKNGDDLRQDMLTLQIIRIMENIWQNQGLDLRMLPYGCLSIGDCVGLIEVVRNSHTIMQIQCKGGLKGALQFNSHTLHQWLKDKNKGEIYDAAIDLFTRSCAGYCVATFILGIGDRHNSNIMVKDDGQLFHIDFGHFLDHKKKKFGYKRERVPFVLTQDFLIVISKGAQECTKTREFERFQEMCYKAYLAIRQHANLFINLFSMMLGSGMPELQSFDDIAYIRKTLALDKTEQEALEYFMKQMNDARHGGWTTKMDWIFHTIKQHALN
Chain of PI3Kα (p110[H1047R]/p85) kinase (P27986 whole entry partner): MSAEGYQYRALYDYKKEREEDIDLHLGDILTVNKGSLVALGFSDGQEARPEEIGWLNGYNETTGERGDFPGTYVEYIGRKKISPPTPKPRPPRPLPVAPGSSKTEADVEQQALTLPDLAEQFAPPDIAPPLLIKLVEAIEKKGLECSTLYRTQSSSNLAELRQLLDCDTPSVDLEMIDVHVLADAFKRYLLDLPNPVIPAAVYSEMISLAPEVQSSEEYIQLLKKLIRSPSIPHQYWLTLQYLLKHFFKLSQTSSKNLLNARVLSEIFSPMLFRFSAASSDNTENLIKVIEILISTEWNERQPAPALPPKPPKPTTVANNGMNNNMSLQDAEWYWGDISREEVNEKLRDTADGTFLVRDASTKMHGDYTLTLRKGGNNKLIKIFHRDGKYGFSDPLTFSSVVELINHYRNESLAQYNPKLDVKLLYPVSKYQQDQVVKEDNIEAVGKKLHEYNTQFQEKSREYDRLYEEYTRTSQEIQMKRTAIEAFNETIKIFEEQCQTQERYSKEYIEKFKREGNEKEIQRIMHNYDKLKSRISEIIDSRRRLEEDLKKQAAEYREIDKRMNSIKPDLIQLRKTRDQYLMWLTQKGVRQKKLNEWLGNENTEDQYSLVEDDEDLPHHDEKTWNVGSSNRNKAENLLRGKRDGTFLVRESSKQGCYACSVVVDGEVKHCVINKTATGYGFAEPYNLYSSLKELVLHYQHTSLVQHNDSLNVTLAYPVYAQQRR

For `Cc1cc(C(C)Nc2ccccc2C(=O)O)c2cc(-c3ccc(C#N)cc3)n(C)c(=O)c2c1` (centres unmarked) [Example 4, 2-((1-(3-(4-cyanophenyl)-2,7-dimethyl-1-oxo-1,2-dihydroisoquinolin-5-yl)ethyl)amino)benzoic acid], the IC50 [1] was 0.443 µM, the “selectivity: WT/H1047R” value [1] was 8.7 and the IC50 [2] was 0.112 µM. The “Selectivity: SK-BR-3/T-47D (cell proliferation)” value [2] was greater than 89, the IC50 [3] was 0.144 µM and the “Selectivity: SK-BR-3/T-47D (p-AKT)” value [3] was greater than 69.
With `Cc1cc(C(C)Nc2ccccc2C(=O)O)c2cc(-c3cnn(C)c3)n(C)c(=O)c2c1` (centres unmarked) [Example 91, 2-((1-(2,7-dimethyl-3-(1-methyl-1H-pyrazol-4-yl)-1-oxo-1,2-dihydroisoquinolin-5-yl)ethyl)amino)benzoic acid] the IC50 [1] was 0.24 µM, the “selectivity: WT/H1047R” value [1] was 40.9 and the IC50 [2] was 0.287 µM. The “Selectivity: SK-BR-3/T-47D (cell proliferation)” value [2] was greater than 35, the IC50 [3] was 0.41 µM and the “Selectivity: SK-BR-3/T-47D (p-AKT)” value [3] was 11.6.
For `Cc1cc(C(C)Nc2sc3ccccc3c2C(=O)O)c2cc(-c3ccccc3)n(C)c(=O)c2c1` (centres unmarked) [Example 92, 2-((1-(2,7-dimethyl-1-oxo-3-phenyl-1,2-dihydroisoquinolin-5-yl)ethyl)amino)benzo[b]thiophene-3-carboxylic acid], the IC50 [1] was 0.887 µM, the “selectivity: WT/H1047R” value [1] was greater than 113 and the IC50 [2] was greater than 10 µM. The IC50 [3] was 0.109 µM and the “Selectivity: SK-BR-3/T-47D (p-AKT)” value [3] was greater than 91.
